“And” between values parts separate entries of the source, which are not always exact repeats. Identical values can stand only once.
How the values were obtained:
Format in all cases: in vivo, beagle dogs
[1] = system: B. burgdorferi; assay: Study B: SNAP-4Dx ELISA in tick-infected dogs; conditions: for SNAP-4Dx Positives, Number of Dogs: N = 8/group
Excerpt: (§1) Three outer surface proteins (Osp) on B. burgdorferi are important for diagnosis and prevention, and are expressed by the organism in response to its local environment. […] OspF is another surface protein that is generally observed in late-stage disease. The C in […] refers to a 25-amino acid, C6 peptide in the sixth invariable region of an outer membrane lipoprotein (VIsE). Antibody against C6 is highly accurate as a serologic diagnosis of Lyme disease independent of a subject's (e.g., canine) vaccination status. Further, the generation of C6 antibodies implies an active infection with viable spirochetes. Serological methods for detecting B. burgdorfer/Lyme disease were conducted using the IDEXX qualitative SNAP-4Dx ELISA and the Quantitative C6 (Quant C6 or QC6) diagnostic kits, which are enzyme linked immunosorbent assays against the previously described 25-amino-acid C6 peptide. QC6 ELISA data, units/mL, are useful for guidance in initiating and evaluating response to therapy (See Levy S A, O'Connor T P, Hanscom J L, Shields P, et al. Quantitative measurement of a C6 antibody following antibiotic treatment of Borrelia burgdorferi antibody-positive, nonclinical dogs. Clin Vacc Immunol 2008; 15(1):115-119 and Littman M P, Goldstein R E, Labato M A, et al. ACVIM Small Animal Concensus Statement on Lyme Disease in Dogs: Diagnosis, Treatment and Prevention. J Vet Intern Med 2006; 20: 422-434).
(§2) Thirty-two (18 male and 14 female) beagle dogs were sero-negative for Borrelia burgdorferi, not vaccinated with any Borrelia spp vaccines, and acclimated at the study facility for seven days. The study was conducted under National Research Council guidelines (1996). […] Field-caught Ixodes from the northeast USA were placed on the dogs without containment chambers for 10 days; after ticks fed to repletion, dogs were treated with two applications of an approved topical acaricide with a 30-day interval between applications.
(§3) Forty days post-challenge, and prior to antibiotic treatments, blood was collected from each dog as were two skin biopsy punch samples near tick attachment sites. Blood was collected approximately monthly post-treatment. Skin biopsies were taken near the tick attachment site on Days 48/49, 118, 146, 180, and 315. Serum antibodies to Borrelia were assayed using the IDEXX SNAP-4Dx and QC6 ELISA. In cooperation with Cornell University, serum samples were analyzed using fluorescent-bead-based multiplex assays detecting antibodies against B. burgdorferi outer surface proteins OspA, OspC, and OspF. Data were expressed as median fluorescent intensities (MFI), and shown to be specific and sensitive to provide interpretative guidelines regarding infection. The skin biopsies were collected for a polymerase chain reaction (PCR; FlaB) assay and cultured for spirochete detection. At the end of the study, blood and skin biopsies were collected and synovial tissue from the joints were harvested at necropsy.
(§4) On Day 75 and Day 89 Convenia was administered to the eight dogs in T04 (8 mg/kg bodyweight; subcutaneous injection). The other treated groups received their respective regimens daily and orally for 30 days from Days 75 to 104. […] Dogs in T01 served as infected, untreated, controls. Inter-treatment comparisons to evaluate antibiotic efficacy included clinical signs, serology, culture results and pathology.

[2] = system: B. burgdorferi; assay: Study B: QC6 ELISA in tick-infected dogs; conditions: 8 dogs/group
Excerpt: as §1, §2, §3, §4

[3] = system: B. burgdorferi outer surface protein OspF; assay: Study B: fluorescent-bead-based multiplex assay, antibodies against OspF; conditions: for Multiplex Assay OspF: No. Dogs > Positive Threshold (# dogs > 1500): 8 dogs/group
Experimental: as §2
as §3, with “Data were expressed as median fluorescent intensities (MFI), and shown to be specific and sensitive to provide interpretative guidelines regarding infection.” left out
On Day 75 and Day 89 Convenia was administered to the eight dogs in T04 (8 mg/kg bodyweight; subcutaneous injection). The other treated groups received their respective regimens daily and orally for 30 days from Days 75 to 104. […] Dogs in T01 served as infected, untreated, controls.

[4] = system: B. burgdorferi outer surface protein OspC; assay: Study B: fluorescent-bead-based multiplex assay, antibodies against OspC; conditions: Day 281
Experimental: as §2
as §3, with “At the end of the study, blood and skin biopsies were collected and synovial tissue from the joints were harvested at necropsy.” left out

[5] = system: B. burgdorferi; assay: Study B: microscopic examination of joints and skin at necropsy; conditions: for Number of Joints with Changes as Described for Lyme disease: N = 8
Experimental: as §2, §3, §4
At necropsy ten joints were harvested per each dog, formalin-fixed, stained and examined microscopically. Joints included the carpus, elbow, shoulder, stifle and tarsus on both the right and left limbs. Further, a section of skin near tick attachment sites was evaluated from each dog. There were two dogs in the Convenia group (25%) with tissues showing changes as described for Lyme disease, compared to seven controls (87.5%) and three (37.5%) to four (50.0%) dogs in the other antibiotic-treated groups (Table 7). […] The Convenia group had the lowest incidence of joint changes with six affected of 80.

[6] = joints, skin, 8 dogs/group, necropsy

Structure (SMILES): CC1(C)S[C@@H]2[C@H](NC(=O)[C@H](N)c3ccc(O)cc3)C(=O)N2[C@H]1C(=O)O [amoxicillin]
- SNAP-4Dx Positives, Number of Dogs ([1]; Day 48 (pre-treatment; antibiotics from Day 75)): 5
- SNAP-4Dx Positives, Number of Dogs ([1]; Day 111): 7
- SNAP-4Dx Positives, Number of Dogs ([1]; Day 145): 3
- SNAP-4Dx Positives, Number of Dogs ([1]; Day 179): 2
- SNAP-4Dx Positives, Number of Dogs ([1]; Day 221): 0
- SNAP-4Dx Positives, Number of Dogs ([1]; Day 251): 0
- SNAP-4Dx Positives, Number of Dogs ([1]; Day 281): 0
- SNAP-4Dx Positives, Number of Dogs ([1]; Day 315): 0
- SNAP-4Dx Positives, Number of Dogs ([1]; Day −15 (pre-infection)): 0
- SNAP-4Dx positive dogs ([1]; rest of the study after Day 179): none positive
- Dogs Sero-converted to B. burgdorferi per QC6 ELISA (≧30 U/mL), (%) ([2]; Day 48 (pre-treatment)): 100.0%
- Number of Dogs Sero-converted to B. burgdorferi per QC6 ELISA (≧30 U/mL), No. ([2]; Day 48 (pre-treatment)): 8
- Dogs Sero-converted to B. burgdorferi per QC6 ELISA (≧30 U/mL), (%) ([2]; Day 111): 75.0%
- Number of Dogs Sero-converted to B. burgdorferi per QC6 ELISA (≧30 U/mL), No. ([2]; Day 111): 6
- Dogs Sero-converted to B. burgdorferi per QC6 ELISA (≧30 U/mL), (%) ([2]; Day 145): 0.0%
- Number of Dogs Sero-converted to B. burgdorferi per QC6 ELISA (≧30 U/mL), No. ([2]; Day 145): 0
- Dogs Sero-converted to B. burgdorferi per QC6 ELISA (≧30 U/mL), (%) ([2]; Day 179): 0.0%
- Number of Dogs Sero-converted to B. burgdorferi per QC6 ELISA (≧30 U/mL), No. ([2]; Day 179): 0
- Dogs Sero-converted to B. burgdorferi per QC6 ELISA (≧30 U/mL), (%) ([2]; Day 221): 0.0%
- Number of Dogs Sero-converted to B. burgdorferi per QC6 ELISA (≧30 U/mL), No. ([2]; Day 221): 0
- Dogs Sero-converted to B. burgdorferi per QC6 ELISA (≧30 U/mL), (%) ([2]; Day 251): 0.0%
- Number of Dogs Sero-converted to B. burgdorferi per QC6 ELISA (≧30 U/mL), No. ([2]; Day 251): 0
- Dogs Sero-converted to B. burgdorferi per QC6 ELISA (≧30 U/mL), (%) ([2]; Day 281): 0.0%
- Number of Dogs Sero-converted to B. burgdorferi per QC6 ELISA (≧30 U/mL), No. ([2]; Day 281): 0
- Dogs Sero-converted to B. burgdorferi per QC6 ELISA (≧30 U/mL), (%) ([2]; Day 314): 0.0%
- Number of Dogs Sero-converted to B. burgdorferi per QC6 ELISA (≧30 U/mL), No. ([2]; Day 314): 0
- Multiplex Assay OspF: MFI Mean ([3]; Day 48 (pre-treatment)): 1083.75 MFI
- Multiplex Assay OspF: No. Dogs > Positive Threshold (# dogs > 1500) ([3]; Day 48 (pre-treatment)): 2
- Multiplex Assay OspF: No. Dogs > Positive Threshold (# dogs > 1500) ([3]; Day 111): three and 3
- Multiplex Assay OspF: MFI Mean ([3]; Day 145): 458.13 MFI
- Multiplex Assay OspF: No. Dogs > Positive Threshold (# dogs > 1500) ([3]; Day 145): 0
- Multiplex Assay OspF: MFI Mean ([3]; Day 179): 327.88 MFI
- Multiplex Assay OspF: No. Dogs > Positive Threshold (# dogs > 1500) ([3]; Day 179): 0
- Multiplex Assay OspF: MFI Mean ([3]; Day 221): 269.63 MFI
- Multiplex Assay OspF: No. Dogs > Positive Threshold (# dogs > 1500) ([3]; Day 221): 0
- Multiplex Assay OspF: MFI Mean ([3]; Day 251): 288.63 MFI
- Multiplex Assay OspF: No. Dogs > Positive Threshold (# dogs > 1500) ([3]; Day 251): 0
- Multiplex Assay OspF: MFI Mean ([3]; Day 281): 288.88 MFI
- Multiplex Assay OspF: No. Dogs > Positive Threshold (# dogs > 1500) ([3]; Day 281): 0
- Multiplex Assay OspF: MFI Mean ([3]; Day 314): 278.25 MFI
- Multiplex Assay OspF: No. Dogs > Positive Threshold (# dogs > 1500) ([3]; Day 314): 0
- Multiplex Assay OspF: MFI Mean ([3]; Day −15 (pre-infection)): 133.38 MFI
- Multiplex Assay OspF: No. Dogs > Positive Threshold (# dogs > 1500) ([3]; Day −15 (pre-infection)): 0
- Antibody-OspF status of dogs ([3]; after Day 111): all dogs negative thereafter
- Number of dogs above infected threshold (antibody-OspC) [4]: one
- Number of Joints with Changes as Described for Lyme disease, Cumulative ([5]; 80 total/group): 12
- Number of Joints with Changes as Described for Lyme disease ([5]; Carpus L): 2
- Number of Joints with Changes as Described for Lyme disease ([5]; Carpus R): 2
- Number of Joints with Changes as Described for Lyme disease ([5]; Elbow L): 1
- Number of Joints with Changes as Described for Lyme disease ([5]; Elbow R): 1
- Number of Joints with Changes as Described for Lyme disease ([5]; Shoulder L): 0
- Number of Joints with Changes as Described for Lyme disease ([5]; Shoulder R): 1
- Number of Joints with Changes as Described for Lyme disease ([5]; Stifle L): 1
- Number of Joints with Changes as Described for Lyme disease ([5]; Stifle R): 2
- Number of Joints with Changes as Described for Lyme disease ([5]; Tarsus L): 1
- Number of Joints with Changes as Described for Lyme disease ([5]; Tarsus R): 1
- No Tissue Changes, # Dogs [5, 6]: 4
- No Tissue Changes, % [5, 6]: 50%
- Tissue Changes Described for Lyme Disease, # Dogs [5, 6]: 4
- Tissue Changes Described for Lyme Disease, % [5, 6]: 50%
